The source of these data is patent US20240116985A1, “STAPLED PEPTIDES AND METHODS THEREOF” (priority 2020, published 2024).

Where two headings read alike, the source gives them in different places.

Test [1] has as its target T1, beta-catenin/TCF4 engagement (Homo sapiens, UniProt P35222).
T1 construct: expressed in transfected cells; host or cells: HEK293
T1 sequence (P35222 1-781): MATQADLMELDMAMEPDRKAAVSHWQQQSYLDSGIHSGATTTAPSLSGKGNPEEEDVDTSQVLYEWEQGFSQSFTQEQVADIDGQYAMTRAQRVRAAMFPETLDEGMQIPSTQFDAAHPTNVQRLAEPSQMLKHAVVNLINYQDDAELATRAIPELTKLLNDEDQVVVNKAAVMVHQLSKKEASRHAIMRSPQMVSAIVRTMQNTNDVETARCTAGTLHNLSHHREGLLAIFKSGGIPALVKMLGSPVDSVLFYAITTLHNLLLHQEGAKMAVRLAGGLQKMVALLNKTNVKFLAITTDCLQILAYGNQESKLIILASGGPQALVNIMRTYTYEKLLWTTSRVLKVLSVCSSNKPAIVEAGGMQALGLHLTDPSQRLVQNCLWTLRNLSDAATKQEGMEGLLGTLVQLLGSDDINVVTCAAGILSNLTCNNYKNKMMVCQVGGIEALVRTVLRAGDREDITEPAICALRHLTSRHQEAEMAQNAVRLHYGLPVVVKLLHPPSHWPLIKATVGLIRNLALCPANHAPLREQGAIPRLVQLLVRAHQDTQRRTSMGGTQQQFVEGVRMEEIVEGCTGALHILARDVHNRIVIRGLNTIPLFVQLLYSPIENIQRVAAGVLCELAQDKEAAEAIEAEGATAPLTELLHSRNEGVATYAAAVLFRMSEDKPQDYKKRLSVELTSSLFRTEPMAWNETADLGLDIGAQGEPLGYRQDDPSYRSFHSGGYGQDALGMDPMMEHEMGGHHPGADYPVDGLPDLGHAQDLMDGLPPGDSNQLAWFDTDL
In words: Nano-BRET target engagement assay (B-cat-Halo & TCF4-Luc in HEK293 cells). The class given is cell-based. The following applies: absolute IC50; read-out: NanoBRET Abs IC50.

Test [2] has as its target T2, full-length beta-Catenin (Uniprot ID P35222) (Homo sapiens, UniProt P35222).
T2 construct: 10 nM full-length beta-Catenin (Uniprot ID P35222)
T2 sequence (P35222 1-781): T1 sequence (P35222 1-781)
Kind of test: Fluorescence polarization IC50 (beta-catenin / 5FAM-TCF4 10-53 competition). The following applies: fluorescence polarization. The class given is binding. (In fluorescence polarisation assays a small probe gives low polarisation when free and higher when bound to something large.)

For the compound `CC(=O)N1CCC[C@]12CC=CCCCC1(CCCC=CCCCOC(=O)N3CC[C@@](C(=O)N[C@@H](Cc4ccsc4)C(=O)N[C@@H](Cc4c[nH]c5ccccc45)C(=O)N[C@@H](CCC(N)=O)C(N)=O)(C3)NC(=O)[C@H](CC(C)C)NC(=O)[C@H](Cc3ccccc3)NC(=O)[C@H](C)NC(=O)[C@H](C)NC(=O)[C@H](CC(=O)O)NC(=O)[C@H](CC(=O)O)NC1=O)NC(=O)[C@H](CC(C)(C)C)NC(=O)[C@H](CC(=O)O)NC2=O` (stereo partly drawn) [I-1431, Ac-PL3-Asp-Npg-B5-Asp-Asp-Ala-Ala-Phe-Leu-PyrS2-3Thi-Trp-Gln-NH2], the IC50 in test [1] turned out to be 14600 nM; in test [2] (beta-catenin, read-out: FP EC50), 34 nM; in test [2] (read-out: beta-Catenin FP IC50), 44 nM.

Regarding `CC(=O)N1CCC[C@]12CC=CCCCC1(CCCC=CCCCOC(=O)N3CC[C@@](C(=O)N[C@@H](Cc4ccsc4)C(=O)N[C@@H](Cc4c[nH]c5ccccc45)C(=O)N[C@@H](CO)C(N)=O)(C3)NC(=O)[C@H](CC(C)C)NC(=O)[C@H](Cc3ccccc3)NC(=O)[C@H](C)NC(=O)[C@H](C)NC(=O)[C@H](CC(=O)O)NC(=O)[C@H](CC(=O)O)NC1=O)NC(=O)[C@H](CC(C)(C)C)NC(=O)[C@H](CC(=O)O)NC2=O` (stereo partly drawn) [I-1432, Ac-PL3-Asp-Npg-B5-Asp-Asp-Ala-Ala-Phe-Leu-PyrS2-3Thi-Trp-Ser-NH2], the IC50 in test [1] worked out at 14500 nM; in test [2] (read-out: beta-Catenin FP IC50) it was 27 nM.

In the case of `CC(=O)N1CCC[C@]12CC=CCCCC1(CCCC=CCCCOC(=O)N3CC[C@@](C(=O)N[C@@H](Cc4ccsc4)C(=O)N[C@@H](Cc4csc5ccccc45)C(=O)N[C@@H](CCC(N)=O)C(N)=O)(C3)NC(=O)[C@H](CC(C)C)NC(=O)[C@H](Cc3ccccc3)NC(=O)[C@H](C)NC(=O)[C@H](C)NC(=O)[C@H](CCC(=O)O)NC(=O)[C@H](CC(=O)O)NC1=O)NC(=O)[C@H](CC(C)(C)C)NC(=O)[C@H](CC(=O)O)NC2=O` (stereo partly drawn) [I-1437, Ac-PL3-Asp-Npg-B5-Asp-Glu-Ala-Ala-Phe-Leu-PyrS2-3Thi-BztA-Gln-NH2], the values for the IC50 in test [1] and in test [2] (read-out: beta-Catenin FP IC50) were 7100 nM and 7 nM, respectively.

Turning to `CC(=O)N1CCC[C@]12CC=CCCCC1(CCCC=CCCCOC(=O)N3CC[C@@](C(=O)N[C@@H](Cc4ccsc4)C(=O)N[C@@H](Cc4csc5ccccc45)C(=O)N[C@@H](CCC(N)=O)C(N)=O)(C3)NC(=O)[C@H](CC(C)C)NC(=O)[C@H](Cc3ccccc3)NC(=O)[C@H](C)NC(=O)[C@H](C)NC(=O)[C@H](CCCC(=O)O)NC(=O)[C@H](CC(=O)O)NC1=O)NC(=O)[C@H](CC(C)(C)C)NC(=O)[C@H](CC(=O)O)NC2=O` (stereo partly drawn) [I-1438, Ac-PL3-Asp-Npg-B5-Asp-Aad-Ala-Ala-Phe-Leu-PyrS2-3Thi-BztA-Gln-NH2], the IC50 in test [1] was 7400 nM; in test [2] (read-out: beta-Catenin FP IC50) it was 5 nM.

Consider `CC(=O)N1CCC[C@]12CC=CCCCC1(CCCC=CCCCOC(=O)N3CC[C@@](C(=O)N[C@@H](Cc4ccsc4)C(=O)N[C@@H](Cc4csc5ccccc45)C(=O)N[C@@H](CCC(N)=O)C(N)=O)(C3)NC(=O)[C@H](CC(C)C)NC(=O)[C@H](Cc3ccccc3)NC(=O)[C@H](C)NC(=O)[C@H](C)NC(=O)[C@H](Cc3c[nH]c4ccccc34)NC(=O)[C@H](CC(=O)O)NC1=O)NC(=O)[C@H](CC(C)(C)C)NC(=O)[C@H](CC(=O)O)NC2=O` (stereo partly drawn) [I-1439, Ac-PL3-Asp-Npg-B5-Asp-Trp-Ala-Ala-Phe-Leu-PyrS2-3Thi-BztA-Gln-NH2], for which the IC50 in test [1] is > 20000 nM; in test [2] (read-out: beta-Catenin FP IC50), 349 nM.

As for `CC(=O)N1CCC[C@]12CC=CCCCC1(CCCC=CCCCOC(=O)N3CC[C@@](C(=O)N[C@@H](Cc4ccsc4)C(=O)N[C@@H](Cc4csc5ccccc45)C(=O)N[C@@H](CCC(N)=O)C(N)=O)(C3)NC(=O)[C@H](CC(C)C)NC(=O)[C@H](Cc3ccccc3)NC(=O)[C@H](C)NC(=O)[C@H](C)NC(=O)[C@H](CCC(N)=O)NC(=O)[C@H](CC(=O)O)NC1=O)NC(=O)[C@H](CC(C)(C)C)NC(=O)[C@H](CC(=O)O)NC2=O` (stereo partly drawn) [I-1440, Ac-PL3-Asp-Npg-B5-Asp-Gln-Ala-Ala-Phe-Leu-PyrS2-3Thi-BztA-Gln-NH2], the IC50 worked out at 20700 nM in test [1] and 26 nM in test [2] (read-out: beta-Catenin FP IC50).
